“Also recorded” adds a separate entry of the source.
How the values were obtained:
C57BL/6 mice = test: Fur colour scoring, chronic 8-week dosing in wild-type mice; format: in vivo, mouse; settings: 8 and 50 μmol/kg p.o. once daily, 8 weeks
Protocol: (§1) Compound 1 and NB-360 were formulated as a suspension. […] Vehicle: […] in 0.5% methylcellulose in water.
(§2) Body weight was taken 3 times per week (Monday, Wednesday, Friday). Subjective scoring of any hair colour changes was performed once weekly (Wednesday). Scores (% of body with grey fur): 0: No change; 1: Spots; 2: >30%; 3: >50%; 4: >75%; 5: 100%. Animals were photo-documented when fur color change was observed. Final fur color scoring was performed blinded and by a person not involved in the study.

[1] = Body weight, chronic 8-week dosing in wild-type mice; format: in vivo, mouse; settings: C57BL/6 mice, 8 weeks chronic treatment
Protocol: as §1, §2

Aβ38 = test: 3-month dose-ranging study: Aβ38 in CSF; format: in vivo, human
Excerpt: This study is listed in ClinicalTrials.gov under the NCT02576639 Identifier code.
The primary purpose of this study was to expand on previous safety and tolerability data obtained over 2-week and 4-week duration in the first in human study and thereby allow initiation of future long-term efficacy trials in subjects at risk of AD. In addition, data relevant for Pharmacokinetic/Pharmacodynamic modeling was obtained in order to support dose selection decisions for future efficacy studies.

amyloid plaques = test: Plaque histology in APP23 mice (plaque numbers and plaque area); format: in vivo, mouse; settings: for Number of large plaques / Number of medium plaques / Number of small plaques: normalized to total area (1000000 * mean ± SEM)
Protocol: (§3) Amyloid plaques were stained using a rabbit anti-Aβ primary antibody which recognizes the C-terminal part of the amyloid peptide (the antibody was raised as described in Schrader-Fischer G, Paganetti P A, 1996; Schrader-Fischer G et al., 1997). Activated astrocytes were detected using a commercial rabbit anti-GFAP (reference Z0334 from Dako Schweiz GmbH, Baar, Switzerland).
All stainings were performed using the fully automated instrument Ventana Discovery® Ultra (Roche Diagnostics Schweiz AG, Rotkreuz, Switzerland). All chemicals were provided by Roche Diagnostic.
(§4) All study animals were used and brain tissue sections of 3 micrometers were freshly cut and collected on SuperFrost+ slides. The tissues sections were de-paraffinized and rehydrated under solvent-free conditions (EZprep solution) followed by antigen retrieval (demasking) performed by heat retrieval cycles for 32 min in an EDTA based buffer (CC1 solution). Subsequently, slides were blocked for 4 min using the DISCOVERY Inhibitor (reference 07017944001 (Roche)). The primary antibody diluted at 1/20,000 in antibody diluent was manually added on tissue sections and incubated for 1h at room temperature. A short post-fixation (glutaraldehyde at 0.05%) was performed before applying the multimer UltraMap-anti Rabbit HRP ready to use antibody (reference 05269717001) for 16 min.
(§5) Detection was performed using the DISCOVERY FITC® following the manufacturer's recommendations. Slides were then heat denaturated at 92° C. for 20 min before a manual application of the second primary antibody (anti-GFAP diluted at 1/2,000) and incubated for 1 h. UltraMap-anti-Rabbit HRP antibody was used again for 20 min to detect GFAP in combination with the DISCOVERY Rhodamine kit (reference 07259883001).
(§6) The slides were washed and mounted using Prolong® Gold antifade reagent (reference P36931, ThermoFisher, Switzerland) and further scanned with the Hamamatsu slide scanner instrument (NanoZoomer 2.0 HT, scanning software NDP-Scan Vers. 2.5, Hamamatsu Photonics France, Swiss Office, Solothurn, Switzerland) at the 40× objective. The scanning settings were as follows: the exposure time with the DAPI filter was set at 57 ms as well as for the FITC filter. The exposure time for the TRITC filter (detection of Rhodamine) was set at 14.2 ms.
For the quantitative plaque evaluation based on image analysis, a proprietary image analysis platform (ASTORIA, Automated Stored Image Analysis) was developed based on MS Visual Studio 2010 and many functions from Matrox MIL V9 libraries (Matrox Inc, Quebec, Canada).
(§7) For the beta-amyloid plaque and neuroinflammation analysis, the following sequence of steps was performed: • Slides were scanned with Hamamatsu Nanozoomer at 40× magnification. For each fluorescence labelling (DAPI, FITC and TRITC), a separate image was created • Manually outline ROIs (regions of interest) for defining cortex in brain sections for Aβ plaque assessment on the green FITC channel image, then use the resulting outline also for the other two channel images (copy resulting xml files) • Run the in-house developed ImageScope (V12.1.0.5029, Aperio Inc., USA) plug-in for creation and export of *.tif image tiles (at 10× magnification) for each of the 3 fluorescence channels
Image Batch Processing: • Obtain the combined true color image (DAPI, FITC, TRITC) for each section through accessing each individual fluorescence channel image • Segmentation of valid sample (within outlined ROI) from black unstained background • Apply adaptive thresholding technique for segmentation of objects in green channel image […]

GFAP positive astrocytes = test: Activated astrocytes in APP23 mice (GFAP positive area); format: in vivo, mouse; settings: for Distal GFAP+ area / Proximal GFAP+ area / Total GFAP+ area / non-plaque associated GFAP+ area / plaque-associated GFAP+ area: normalized to total area (100 * mean ± SEM)
Excerpt: as §3, §4, §5, §6, §7
Image Batch Processing: • Obtain the combined true color image (DAPI, FITC, TRITC) for each section through accessing each individual fluorescence channel image • Segmentation of valid sample (within outlined ROI) from black unstained background • Apply adaptive thresholding technique for segmentation of objects in green channel image
(FITC-labeled Aβ plaques) • Separation of touching objects for correct subsequent individual object analysis after elimination of too small debris showing signal in the green (FITC) channel • Segmentation of TRITC-labeled objects in red channel (specific for GFAP or Iba1 staining indicating astrocytes or microglia) through morphological tophat transformation and thresholding • Feature based object classification […]

Structure (SMILES): C[C@@]1(c2nc(NC(=O)c3ncc(C(F)(F)F)cc3Cl)ccc2F)CO[C@@](C)(C(F)(F)F)C(N)=N1 [Compound 1, N-(6-((3R,6R)-5-amino-3,6-dimethyl-6-(trifluoromethyl)-3,6-dihydro-2H-1,4-oxazin-3-yl)-5-fluoropyridin-2-yl)-3-chloro-5-(trifluoromethyl)picolinamide]
- fur colour change (C57BL/6 mice): no apparent fur color change detectable; also recorded: did not show signs of hair discoloration
- body weight difference compared to vehicle [1]: No overall significant body weight difference
- Aβ38 in CSF percent change from baseline, Difference (90% CI) Cmpd 1-Placebo (Aβ38; month 3, 2 mg QD): −18.17 (−21.49, −14.85) %
- Aβ38 in CSF percent change from baseline, LSmean (SE) (Aβ38; month 3, 2 mg QD): −20.58 (1.397) %
- Aβ38 in CSF percent change from baseline, Difference (90% CI) Cmpd 1-Placebo (Aβ38; month 3, 10 mg QD): −60.18 (−63.54, −56.83) %
- Aβ38 in CSF percent change from baseline, LSmean (SE) (Aβ38; month 3, 10 mg QD): −62.60 (1.430) %
- Aβ38 in CSF percent change from baseline, Difference (90% CI) Cmpd 1-Placebo (Aβ38; month 3, 35 mg QD): −80.55 (−83.83, −77.27) %
- Aβ38 in CSF percent change from baseline, LSmean (SE) (Aβ38; month 3, 35 mg QD): −82.96 (1.366) %
- Aβ38 in CSF percent change from baseline, Difference (90% CI) Cmpd 1-Placebo (Aβ38; month 3, 85 mg QD): −86.81 (−90.22, −83.41) %
- Aβ38 in CSF percent change from baseline, LSmean (SE) (Aβ38; month 3, 85 mg QD): −89.23 (1.470) %
- Number of large plaques (amyloid plaques; APP23, 0.03 g/kg food): 0.09 ± 0.02
- Number of medium plaques (amyloid plaques; APP23, 0.03 g/kg food): 1.06 ± 0.14
- Number of small plaques (amyloid plaques; APP23, 0.03 g/kg food): 10.06 ± 1.55
- Number of large plaques, change vs vehicle (amyloid plaques; APP23, 0.03 g/kg vs vehicle): −29.9%
- Number of medium plaques, change vs vehicle (amyloid plaques; APP23, 0.03 g/kg vs vehicle): −22.9%
- Number of small plaques, change vs vehicle (amyloid plaques; APP23, 0.03 g/kg vs vehicle): −30.3%
- Total plaque area, change vs vehicle (amyloid plaques; APP23, 0.03 g/kg vs vehicle): −26.4%
- Number of large plaques (amyloid plaques; APP23, 0.3 g/kg food): 0.04 ± 0.01
- Number of medium plaques (amyloid plaques; APP23, 0.3 g/kg food): 0.58 ± 0.10
- Number of small plaques (amyloid plaques; APP23, 0.3 g/kg food): 5.78 ± 0.75
- Number of large plaques, change vs vehicle (amyloid plaques; APP23, 0.3 g/kg vs vehicle): −68.2%
- Number of medium plaques, change vs vehicle (amyloid plaques; APP23, 0.3 g/kg vs vehicle): −57.9%
- Number of small plaques, change vs vehicle (amyloid plaques; APP23, 0.3 g/kg vs vehicle): −60.0%
- Total plaque area, change vs vehicle (amyloid plaques; APP23, 0.3 g/kg vs vehicle): −59.5%
- reduction of plaque load (immunohistochemistry) (amyloid plaques; APP23, high dose group): ~70%
- reduction of the increase in plaques and total plaque area (amyloid plaques; APP23, high dose treatment group): about 60%
- reduction of plaque load (immunohistochemistry) (amyloid plaques; APP23, low dose group): ~20%
- reduction of the increase in plaques and total plaque area (amyloid plaques; APP23, low dose treatment group): about 25%
- Distal GFAP+ area (GFAP positive astrocytes; APP23, 0.03 g/kg food): 12.16 ± 1.52
- Proximal GFAP+ area (GFAP positive astrocytes; APP23, 0.03 g/kg food): 4.11 ± 0.86
- Total GFAP+ area (GFAP positive astrocytes; APP23, 0.03 g/kg food): 18.56 ± 2.59
- non-plaque associated GFAP+ area (GFAP positive astrocytes; APP23, 0.03 g/kg food): 16.27 ± 2.19
- plaque-associated GFAP+ area (GFAP positive astrocytes; APP23, 0.03 g/kg food): 2.29 ± 0.47
- Distal GFAP+ area, change vs vehicle (GFAP positive astrocytes; APP23, 0.03 g/kg vs vehicle): −8.9%
- Proximal GFAP+ area, change vs vehicle (GFAP positive astrocytes; APP23, 0.03 g/kg vs vehicle): −28.0%
- Total GFAP+ area, change vs vehicle (GFAP positive astrocytes; APP23, 0.03 g/kg vs vehicle): −16.9%
- non-plaque associated GFAP+ area, change vs vehicle (GFAP positive astrocytes; APP23, 0.03 g/kg vs vehicle): −14.6%
- plaque-associated GFAP+ area, change vs vehicle (GFAP positive astrocytes; APP23, 0.03 g/kg vs vehicle): −29.8%
- Distal GFAP+ area (GFAP positive astrocytes; APP23, 0.3 g/kg food): 9.72 ± 1.65
- Proximal GFAP+ area (GFAP positive astrocytes; APP23, 0.3 g/kg food): 1.91 ± 0.51
- Total GFAP+ area (GFAP positive astrocytes; APP23, 0.3 g/kg food): 12.79 ± 2.33
- non-plaque associated GFAP+ area (GFAP positive astrocytes; APP23, 0.3 g/kg food): 11.63 ± 2.06
- plaque-associated GFAP+ area (GFAP positive astrocytes; APP23, 0.3 g/kg food): 1.16 ± 0.32
- Distal GFAP+ area, change vs vehicle (GFAP positive astrocytes; APP23, 0.3 g/kg vs vehicle): −27.2%
- Proximal GFAP+ area, change vs vehicle (GFAP positive astrocytes; APP23, 0.3 g/kg vs vehicle): −66.6%
- Total GFAP+ area, change vs vehicle (GFAP positive astrocytes; APP23, 0.3 g/kg vs vehicle): −42.7%
- non-plaque associated GFAP+ area, change vs vehicle (GFAP positive astrocytes; APP23, 0.3 g/kg vs vehicle): −39.0%
- plaque-associated GFAP+ area, change vs vehicle (GFAP positive astrocytes; APP23, 0.3 g/kg vs vehicle): −64.3%

From patent publication US20200345746A1, “Oxazine Derivative for Use in the Prevention of Alzheimer's Disease in at Risk Patents” (Novartis AG, priority 2016, published 2020)
